Reference: patent US10786509B2, “Treatment and prevention of atherothrombosis by inhibition of bruton's tyrosine kinase (BTK)” (priority 2016, dated 2020)
“And” between values parts separate entries of the source, which are not always exact repeats. Equal entries are not always repeated. Where two headings read alike, the source gives them in different places.

How the values were obtained:
[1] = test system: platelet aggregation in blood; assay: Platelet aggregation in blood by multiple electrode aggregometry (MEA), static, inhibitor added in vitro; format: cell-based, human; conditions: for collagen-induced platelet aggregation / platelet aggregation stimulated by TRAP, ADP or AA: 2 μM; for collagen-induced platelet aggregation: compared with plaque-induced aggregation; for maximal suppression of plaque-induced platelet aggregation: ACP-196 at 1 μM, ONO/GS-4059 at 2 μM; for IC50: Homo sapiens, Platelet, 15 min pre-incubation, MEA
Description: The first 3 ml of blood drawn into an empty syringe were discarded. Experiments were performed between 30 min and 4 h after venipuncture. […] (Bampalis V G. et al.

[2] = test system: platelet deposition onto plaque homogenate, plaque tissue sections or collagen; assay: Platelet aggregation and thrombus formation in flowing whole blood (parallel plate flow chamber), inhibitor added in vitro; format: cell-based, human; conditions: for final platelet aggregate formation onto collagen fibers: up to 2 μM, only delayed at highest concentrations
[3] = test system: platelet deposition onto plaque homogenate or collagen; assay: Ex vivo platelet thrombus formation under arterial flow in two healthy volunteers after oral Imbruvica; design: species or system human; conditions: shear rate 600/s
Description: For experiments in flowing blood, glass cover slips (Menzel, 24×60 mm, #1.5) coated with collagen (20 μg/ml), plaque homogenates or plaque tissue sections were assembled into parallel plate flow chambers using sticky slides (0.1 Luer sticky slides, Ibidi®, Martinsried, Germany) which had been blocked before with human serum albumin (HSA; 4% in PBS).
Fluorescence microscopy (excitation: 485/25 nm, emission: 528/38 nm) was performed for real time measurement of platelet adhesion and aggregate formation using a 10× air objective (NA 0.4) and a CoolSNAP HQ2 CCD camera (Photometrics, Tucson, USA).

[4] = test system: platelet aggregation in blood; assay: Ex vivo static platelet aggregation (MEA) in two healthy volunteers after oral Imbruvica
[5] = Blood counts, liver enzymes and tolerability in two healthy volunteers after oral Imbruvica
[6] = plaque 833 μg/ml, static, read-out: IC50 for inhibition of plaque-induced platelet aggregation
[7] = plaque-induced platelet aggregation, static
[8] = donor B, after 1 week 140 mg each other day
[9] = donor A, 1 week after low dose Imbruvica (140 mg/d)
[10] = donor A, 3 h after Imbruvica loading dose (3×140 mg)
[11] = donor B, 1 week after low dose Imbruvica (140 mg each other day)
[12] = donor B, 3 h after Imbruvica loading dose (3×140 mg)

CC#CC(=O)N1CC[C@@H](n2c(=O)n(-c3ccc(Oc4ccccc4)cc3)c3c(N)ncnc32)C1.Cl [ONO/GS-4059]
collagen-induced platelet aggregation ([1]; static): equally well inhibited | platelet aggregation stimulated by TRAP, ADP or AA ([1]; static): only marginally | maximal suppression of plaque-induced platelet aggregation ([1]; static): 82% | IC50 [1, 6]: 1000 nM | concentration at which maximal suppression was reached [1, 7]: 2 µM | final platelet aggregate formation onto collagen fibers ([2]; shear rate 600/s): did not compromise

CC#CC(=O)N1CCC[C@H]1c1nc(-c2ccc(C(=O)Nc3ccccn3)cc2)c2c(N)nccn12 [acalabrutinib]
collagen-induced platelet aggregation ([1]; static): equally well inhibited | platelet aggregation stimulated by TRAP, ADP or AA ([1]; static): only marginally | maximal suppression of plaque-induced platelet aggregation ([1]; static): 80% | IC50 [1, 6]: 400 nM | concentration at which maximal suppression was reached [1, 7]: 1 µM | inhibition of platelet aggregation / thrombus formation onto plaque homogenate ([2]; 2 μM, shear rate 600/s): 96% | final platelet aggregate formation onto collagen fibers ([2]; shear rate 600/s): did not compromise

C=CC(=O)N1CCC[C@@H](n2nc(-c3ccc(Oc4ccccc4)cc3)c3c(N)ncnc32)C1 [ibrutinib, 1-[(3R)-3-[4-Amino-3-(4-phenoxyphenyl)-1H-pyrazolo[3,4-d]pyrimidin-1-yl]piperidin-1-yl]prop-2-en-1-one]
reduction of platelet aggregation stimulated by ADP ([1]; 1 μM, ADP 5 μM, static): −13% | reduction of platelet aggregation stimulated by TRAP ([1]; 1 μM, TRAP 5 μM, static): −31% | platelet aggregation upon stimulation with collagen ([1]; 1 μM, collagen, static): almost completely inhibited | spontaneous minimal platelet aggregation in the absence of stimuli ([1]; 1 μM, no stimulus): abolished | platelet aggregation upon stimulation with plaque ([1]; 1 μM, plaque 833 μg/ml, static): almost completely inhibited | IC50 ([1]; collagen, static, read-out: IC50 for inhibition of collagen-stimulated platelet aggregation): 120 ± 40 nM | IC50 [1, 6]: 180 ± 50 nM | concentration at which maximal suppression was reached ([1]; plaque- and collagen-stimulated platelet aggregation, static): 0.5 µM | platelet aggregation onto collagen ([2]; 0.2 μM and 0.5 μM, high shear rate 1500/s): did not reduce | change of platelet thrombus formation onto plaque homogenate ([2]; 0.2 μM, high shear rate 1500/s): −69±16% | change of collagen-induced platelet aggregation ([2]; 0.2 μM, shear rate 600/s): +1±6% | change of platelet aggregation onto plaque homogenate ([2]; 0.2 μM, shear rate 600/s): −43±27% | change of platelet aggregation onto plaque tissue ([2]; 0.2 μM, shear rate 600/s): −33±23% | change of platelet thrombus formation onto plaque homogenate ([2]; 0.5 μM, high shear rate 1500/s): −93±5% | change of collagen-induced platelet aggregation ([2]; 0.5 μM, shear rate 600/s): +3±9% | change of platelet aggregation onto plaque homogenate ([2]; 0.5 μM, shear rate 600/s): −84±8% | change of platelet aggregation onto plaque tissue ([2]; 0.5 μM, shear rate 600/s): −44±30% | change of final platelet aggregate formation onto collagen fibers ([2]; 1 μM, shear rate 600/s): +8±2% | change of platelet aggregation onto plaque homogenate ([2]; 1 μM, shear rate 600/s): −98±1% | change of platelet thrombus formation onto plaque tissue ([2]; 1 μM, shear rate 600/s): −76±16% | platelet adhesion onto plaque homogenate ([2]; 1 μM, shear rate 600/s): preserving platelet adhesion | plaque-induced thrombus formation under arterial flow ([3]; after 1 week 140 mg/d (donor A) or 140 mg each other day (donor B)): suppressed | plaque-induced thrombus formation under arterial flow ([3]; both donors, 3 h after loading dose 3×140 mg): suppressed | inhibition of plaque-induced platelet aggregation at each day tested ([4]; donor A, 140 mg/d during the week, blood taken 23 h or 3 h post dose): > 90% | inhibition of collagen-induced platelet aggregation ([4]; donor A, 3 h after loading dose 3×140 mg): 91% | inhibition of platelet aggregation induced by two plaque homogenate pools ([4]; donor A, 3 h after loading dose 3×140 mg, one value per pool, listed as Imbruvica): 94% and 93% | inhibition of platelet aggregation after collagen stimulation ([4]; donor A, after 1 week 140 mg/d): 91% | reduction of platelet aggregation stimulated by TRAP ([4]; donor A, after 1 week 140 mg/d): 70% | inhibition of platelet aggregation stimulated by two plaque homogenate pools ([4]; donor A, after 1 week 140 mg/d, one value per pool, listed as Imbruvica): 94% and 91% | reduction of platelet aggregation after collagen stimulation ([4]; donor B, 3 h after loading dose 3×140 mg): 58% | reduction of platelet aggregation after plaque stimulation (two pools) ([4]; donor B, 3 h after loading dose 3×140 mg, one value per pool, listed as Imbruvica): 68% and 77% | inhibition of platelet aggregation after collagen stimulation [4, 8]: 82% | reduction of platelet aggregation stimulated by TRAP [4, 8]: 45% | inhibition of platelet aggregation stimulated by two plaque homogenate pools ([4]; donor B, after 1 week 140 mg each other day, one value per pool, listed as Imbruvica): 93% and 91% | platelet aggregation induced by TRAP, ADP or AA ([4]; donors A and B, 3 h after loading dose 3×140 mg): barely inhibited | platelet aggregation induced by ADP or AA ([4]; donors A and B, after 1 week low dose): barely inhibited | B-lymphocytes (measured by FACS) ([5]; both donors): rather increased then decreased | HCT [5, 9]: 36.7 | Hb [5, 9]: 13.0 g/dL | Lymphocytes [5, 9]: 2900 µL⁻¹ | Lymphocytes, % [5, 9]: 45.9% | Monocytes [5, 9]: 500 µL⁻¹ | Monocytes, % [5, 9]: 8.1% | Neutrophils [5, 9]: 2900 µL⁻¹ | Neutrophils, % [5, 9]: 46% | Platelets [5, 9]: 217000 µL⁻¹ | Red blood cells [5, 9]: 4.22e+06 µL⁻¹ | HCT [5, 10]: 36.8 | Hb [5, 10]: 12.4 g/dL | Lymphocytes [5, 10]: 2600 µL⁻¹ | Lymphocytes, % [5, 10]: 44% | Monocytes [5, 10]: 300 µL⁻¹ | Monocytes, % [5, 10]: 5.8% | Neutrophils [5, 10]: 2900 µL⁻¹ | Neutrophils, % [5, 10]: 50.2% | Platelets [5, 10]: 247000 µL⁻¹ | Red blood cells [5, 10]: 4.07e+06 µL⁻¹ | HCT [5, 11]: 44 | Hb [5, 11]: 16.1 g/dL | Lymphocytes [5, 11]: 2000 µL⁻¹ | Lymphocytes, % [5, 11]: 29.5% | Monocytes [5, 11]: 900 µL⁻¹ | Monocytes, % [5, 11]: 12.5% | Neutrophils [5, 11]: 3900 µL⁻¹ | Neutrophils, % [5, 11]: 58% | Platelets [5, 11]: 160000 µL⁻¹ | Red blood cells [5, 11]: 4.91e+06 µL⁻¹ | HCT [5, 12]: 47.8 | Hb [5, 12]: 17.2 g/dL | Lymphocytes [5, 12]: 1700 µL⁻¹ | Lymphocytes, % [5, 12]: 27.0% | Monocytes [5, 12]: 700 µL⁻¹ | Monocytes, % [5, 12]: 10.7% | Neutrophils [5, 12]: 4000 µL⁻¹ | Neutrophils, % [5, 12]: 62.3% | Platelets [5, 12]: 188000 µL⁻¹ | Red blood cells [5, 12]: 5.39e+06 µL⁻¹ | liver enzymes ([5]; loading dose or weekly low dose intake, two donors): not altered
